In patent publication US20240277682A1, “PHARMACEUTICAL HYDRONIDONE FORMULATIONS FOR DISEASES” (Gyre Therapeutics, Inc., priority 2021, published 2024):

Columns and labels:
[1] = Safety, tolerability and PK of single doses, 7-day and 4-week multiple oral doses (Example 10); format: in vivo, human
Method: This was a randomized, open-label, study of safety, tolerability and PK of single doses, 7-day, and 4-week multiple oral doses of Hydronidone in healthy Chinese subjects.
This study was conducted in three parts. In the first part single escalating doses of Hydronidone of 15 mg, 30 mg, 60 mg, 90 mg, and 120 mg/day were administered to six (6), eight (8), eight (8), six (6), six (6) healthy subjects, respectively, as per the Fibonacci Escalating Method (modified Fibonacci method). […] As no adverse experiences were reported at any dose level, the two highest single dose levels of 90 mg and 120 mg of Hydronidone were selected for the second part of the study, and were administered TID to 6 subjects each, for seven consecutive days. Thus, total daily doses of Hydronidone in these two dose groups were 270 mg and 360 mg, respectively. All subjects completed the seven-day dosing regimen without premature discontinuation. No clinically-significant abnormal changes in vital signs, ECG and laboratory test results of each group of subjects were found. In the third part of the study, six (6) subjects were given oral Hydronidone at a daily dose of 60 mg TID (total daily dose of 180 mg) for four (4) consecutive weeks. All subjects completed the seven-day dosing regimen without premature discontinuation. No clinically-significant abnormal changes in vital signs, ECG and laboratory test results of each group of subjects were found.
PK assessments were performed in each part of the study. In the single part of the study, the PK parameters also included food effect assessment.

liver fibrosis = test: CCl4-induced liver fibrosis in mice; format: in vivo
Method: Hydronidone anti-fibrotic effects were evaluated in several animal models of liver fibrosis, such as human serum albumin (HSA)-induced liver fibrosis in rats, dimethyl nitrosamine (DMN)-induced liver fibrosis in rats, and carbon tetrachloride (CCl4)-induced liver fibrosis in mice. […] In the CCl4-induced liver fibrosis in mice, Hydronidone effects were the most prominent at the doses of 3-10 mg/kg/day, although some effects were also shown at the dose of 1 mg/kg/day. In some embodiments, this dose range corresponds to human equivalent dose (HED) range of 15-50 mg. […] The HED of these rat doses are in the range of 100-2,400 mg which were all tested as safe in Phase I clinical trials of Hydronidone, with the 100 mg dose being […] the maximum daily dose of 360 mg (administered as 120 mg TID) administered to the subjects with liver fibrosis due to chronic Hepatitis B in the ongoing Phase II clinical study of efficacy and safety of Hydronidone in China.

Cc1ccc(=O)n(-c2ccc(O)cc2)c1 [Hydronidone, N-(4-hydroxyphenyl)-5-Methyl-2-pyridone]
maximum tolerated single oral dose ([1]; healthy subjects): 120 mg
Tmax ([1]; human, in vivo, po, 120 mg): 36 ± 29.4 min
QTc interval ([1]; in vivo): no abnormal prolongation of the QTc interval
subjects with increase in T-BIL and D-BIL post-dose values ([1]; in vivo): Three
anti-fibrotic effect (level of fibrosis, hydroxyproline, ALT, AST) (liver fibrosis): potent anti-fibrotic effect
dose at which some effects were also shown (liver fibrosis): 1 mg/kg/day
doses at which effects were the most prominent (liver fibrosis): 3 to 10 mg/kg/day
